According to patent publication US12618045B2, “Automated method for preparing retinal pigment epithelium cells” (CENTRE D'ETUDE DES CELLULES SOUCHES (CECS), priority 2019, dated 2026):

Assays:
[1] = test system: hESCs (hESC line RC-0913); assay: RT-qPCR of retinal development markers during differentiation of hESCs; type: cell-based, human
Description: (§1) Clinical-grade hESC line RC-0913, was used and cultured in feeder free conditions using mTeSR™ Medium (StemCell technologies) and hESC qualified Matrigel (Corning). Cells were banked at passage 36 and used for RPE differentiation between passage 38 and 45. Cells were plated at 5×10^4 cells per cm^2 and grown until they reached 80 percent of confluence before switching to a differentiation medium composed of Dulbecco's modified Eagle's medium (high glucose, Thermo Fisher Scientific) supplemented with 50 μM β-mercaptoethanol, 1× minimum essential medium-nonessential amino acids (Thermo Fisher Scientific) and 20% (D0-D42) or 4% (after passage 1) of knockout serum replacement (KSR, Thermo Fisher Scientific). During all the differentiation process the medium was changed every 2/3 days.
(§2) For the referred “directed differentiation” protocol, 10 mM Nicotinamide (Sigma), 100 ng/ml Activin A
(§3) (Peprotech) and 3 μM CHIR99021 (Tocris) were added sequentially to the basal differentiation medium at specific time points (FIG. 2A).
Total RNAs were extracted using RNAeasy Plus Mini kit (Qiagen) and cDNA synthesized using SuperScript III (Invitrogen). Quantitative real-time RT-PCR was performed using a Quant Studio 12K flex (Applied Biosystems) with HiGreen qPCR Master Mix (Thermo Fisher Scientific). Experiments were performed with at least three technical replicates per plate and expression levels were normalized to 18S. Relative expression compared to hESCs gene expression levels were determined by calculating the 2-ΔΔCt.

[2] = test system: hESCs (hESC line RC-0913); assay: Immunostaining of marker proteins during differentiation of hESCs; type: cell-based, human
Description: as §1, §2, §3
hESC-RPE cells were grown on Matrigel-coated 96 or 24-well plates. Adherent cells were fixed in 4% PFA for 10 min at room temperature (RT) and rinsed 3 times with PBS. After 30 min in blocking solution (10% FBS in 0.1% Triton PBS) at RT, cells were incubated with primary antibodies overnight at 4° C. After 3 washes in PBS, appropriate Alexa Fluor-conjugated secondary antibodies (Invitrogen) were added at 1:500 for 1 h at RT in presence of DAPI (Invitrogen).
Images were acquired with an Axio observer Z1 microscope (Zeiss) with a Hamamatsu ORCA-flash 4.0 camera and a spinning disk unit (Yokogawa CSU-X1-A1N-E; Camera evolve, EMCCD 512) with Metamorph software or with a LSM-800 confocal microscope (Zeiss) with Zen software. Images were exported, analyzed and processed with Fiji software. […] The quantification of pigmented areas was performed after manual delimitation of culture dish areas using Fiji software. Pictures were then binarized to 8-bit images using a fixed intensity threshold and the black area fraction was measured (not herein shown).

[3] = CHIR99021 from day 14 to day 35-42

NC(=O)c1cccnc1 [Nicotinamide]
transient expression of early eye field transcription factors SIX3 and RAX (mRNA) ([1]; Nicotinamide 10 mM, first 7 days of differentiation, compared to spontaneous protocol, p<0.01): significantly enhanced
expression of pluripotency marker NANOG (mRNA) ([1]; Nicotinamide 10 mM, first 7 days, compared to spontaneous protocol, p<0.01): higher decrease
cells co-expressing LHX2 and PAX6 proteins ([2]; day 7 after Nicotinamide treatment, n=3): 86.8%±4.3%

Cc1c[nH]c(-c2cnc(NCCNc3ccc(C#N)cn3)nc2-c2ccc(Cl)cc2Cl)n1 [CHIR99021]
MITF expression (mRNA) [1, 3]: continuous increased expression
VSX2 mRNA levels [1, 3]: acute decreased expression
MITF+ cells ([2]; day 21, CHIR99021 from day 14): 87.5%±12.5%
VSX2 positive cells ([2]; day 21, CHIR99021 from day 14): absence

B1: Activin A: member of TGF β superfamily, second differentiating agent, 100 ng/ml (Peprotech) (protein, UniProt P08476 311-426, looked up)
Inhibin beta A chain: GLECDGKVNICCKKQFFVSFKDIGWNDWIIAPSGYHANYCEGECPSHIAGTSGSSLSFHSTVINHYRMRGHSPFANLKSCCVPTKLRPMSMLYYDDGQNIIKKDIQNMIVEECGCS
modifications: Inhibin beta A chain
RAX and SIX3 mRNA levels ([1]; Activin A day 7 to day 14): decreased
expression of optic vesicle transcription factors VSX2 and MITF (mRNA) ([1]; Activin A day 7 to day 14, compared to spontaneous differentiation, p≤0.05): significantly increased
